Values after ≈ are worked out from the molar mass of the structure shown.

In assay [1] the test system is Staphylococcus aureus ATCC 6538. Put plainly: Minimum Inhibitory Concentration (MIC). In kind it is cell-based. The conditions noted are these: for MIC: ATCC6538, Staphylococcus aureus ATCC 6538, change in absorbance <0.2 A540; for activity against Staphylococcus aureus (in words): summary statement. The method, then: One property that characterises the effectiveness of a compound or composition to inhibit the growth of bacteria, is the minimum inhibitory concentration, or MIC, of the compound or composition. The MIC is defined as the minimum amount of a compound or composition (e.g. in ppm) at which little or no bacterial growth is observed. […] The minimum inhibitory concentration of a compound was determined by the following method. A culture of the test strains of bacteria Staphylococcus aureus ATCC 6538 (American Type Culture Collection, P.O. Box 1549, Manassas, Va. 20108, USA) was incubated for 16-24 hours, in a shaken flask at 37° C. The cultures was then diluted in sterile 0.1% TSB (Oxoid, Basingstoke, UK) to give a concentration of bacteria of approximately 10^6 colony forming units (cfu) per ml. Fragrance compounds were prepared in sterile TSB to give stock solutions with final concentrations of 40,000 ppm. The absorbance at 540 nm (hereinafter referred to for brevity and simplicity as “A540”) was used as a measure of turbidity resulting from bacterial growth. The MIC was taken as the concentration of ingredient required to inhibit growth so that the average change in absorbance during the incubation period was <0.2 A540.

The subject of assay [2] is Mosquito (Aedes aegyptii). Put plainly: Insect repellency against mosquitoes, treated arm in cage. In kind it is in vivo. As to the method: (§1) Compound 1 was tested for insect repellency against mosquitoes and ants. In all cases, repellency is calculated with reference to an untreated surface having 0% repellency.
(§2) Ant (Lasius niger) 300 mm square vinyl tiles half treated with 0.9 ml test material and left for 2 hours. Glass arena 250 mm square, 75 mm high and fluon coated, open to air. Arena illuminated from 1.0 m above by four 18 W fluorescent lamps. 50 black ants per arena counted every 5 minutes. Arena turned 180 degrees every 10 minutes. Any ants injured or escaping replaced. Mosquito (Aedes aegyptii) A perspex box approx 18 inch cube, with sleeved circular entry was used as the test cage. The box contained 5 day old, mated honey fed females. The area of arm to be tested was measured. The test material was applied from ethanol solution at a rate of 0.2 mg test material per square centimetre. A similar area of the other arm was used for the control. A pair of disposable gloves was worn on the hands throughout the test. In turn each arm was inserted into the cage for 30 seconds. This was repeated 3 times. The number of mosquitoes landing on the arm was recorded every five seconds. As penetration of the skin occurs within 5 seconds the arm was flicked at this frequency to dislodge the flies.

A further assay concerns Ant (Lasius niger). Put plainly: Insect repellency against ants, half-treated vinyl tiles. In kind it is in vivo. The method, then:
as §1
Ant test is completed with a simplified general purpose cleaner formulation: […]
This product is applied to the floor tiles (vinyl) at the rate of 20 g·m^−2.
as §2, with “As penetration of the skin occurs within 5 seconds the arm was flicked at this frequency to dislodge the flies.” left out

Consider `CC(C=O)CC1CCCC(C)C1` (stereo not shown) [Compound 3, 2-methyl-3-(3-methylcyclohexyl)propanal], for which the minimal inhibitory concentration (MIC) (in general, the lowest concentration that inhibits growth of the organism) in assay [1] worked out at 5000 µg/mL (≈ 29700 µM).
For the compound `CC1CCCC(CCC=O)C1` (stereo not shown) [Compound 4, 3-(3-methylcyclohexyl)propanal], in assay [1], the MIC was greater than 5000 µg/mL.
Consider `CC(C)(C)C1CCCC(CCC=O)C1` (stereo not shown) [Compound 1, 3-(3-tert-butylcyclohexyl)propanal], for which the repellency against mosquitoes in assay [2] (after 10 minutes, wrt untreated surface, 0.2 mg test material per square centimetre) was found to be 100%. The “repellency properties against mosquitoes (in words)” value in assay [2] (summary statement) is listed as “excellent repellency properties”. In the assay with Ant (Lasius niger) (over first hour, wrt untreated surface, 1.0% in general purpose cleaner formulation), this compound came in with a repellency against ants of 72%. Besides, the “repellency properties against ants (in words)” value with Ant (Lasius niger) (summary statement) was “excellent repellency properties”. Besides, in assay [1], the MIC turned out to be 312 µg/mL (≈ 1590 µM) and the “activity against Staphylococcus aureus (in words)” value is “excellent activity against Staphylococcus aureus”.
For `CC(C)C1CCCC(C(C)CC=O)C1` (stereo not shown) [Compound 2, 3-(3-isopropylcyclohexyl)butanal], in assay [1], the lowest concentration to inhibit growth (MIC) was 312 µg/mL (≈ 1590 µM) and the “activity against Staphylococcus aureus (in words)” value is reported as “excellent activity against Staphylococcus aureus”.

The values above are taken from patent US20140142343A1, “Novel Fragrance Compounds” (Givaudan Nederland Services B.V., priority 2006, published 2014).
